The record followed here is patent publication US8802712B2, “Pyrazoloquinolines” (Merck Patent GmbH, priority 2010, dated 2014).

Data set [1] addresses DNA-PK (Homo sapiens (Human), UniProt P78527). Put plainly: DNA-PK/Biochemical Assay (FlashPlate kinase assay). The following applies: 5 μM ATP, 90 min, room temperature. Here is the method:
The kinase assay was carried out in streptavidin-coated […] microtitre FlashPlates®. To this end, 1.5 μg of the DNA-PK/protein complex and 100 ng of biotinylated substrate, such as, for example, […] biotin-NH2 (“biotin-DNA-PK peptide”), in a total volume of 36.5 μl (34.25 mM HEPES/KOH, 7.85 mM Tris-HCl, 68.5 mM KCl, 5 μM ATP, 6.85 mM MgCl2, 0.5 mM EDTA, 0.14 mM EGTA, 0.69 mM DTT, pH 7.4), were incubated at room temperature for 90 min with 500 ng of DNA from calf thymus, 0.1 μCi of 33P-ATP and 1.8% of DMSO per well with or without the test compound. The reaction was stopped using 50 μl/well of 200 mM EDTA. After incubation for a further 30 min at room temperature, the liquid was removed. Each well was washed three times with 100 μl of 0.9% sodium chloride solution. A non-specific reaction (blank value) was determined using 10 μM of a proprietary kinase inhibitor. The radioactivity measurement was carried out by means of a TopCount. IC50 values were calculated in RS1. • Literature: Kashishian et al. (2003) Molecular Cancer Therapeutics 1257.

A word on the IC50: it is the point on the concentration scale where inhibition reaches its midpoint. Lower therefore signals higher potency. For orientation: melting point means the temperature of the solid-liquid transition.

Take `COc1cc2c(cc1O)ncc1c2c(-c2ccc(C#N)cc2)nn1C` [Compound 4, 4-(7-Hydroxy-8-methoxy-3-methyl-3H-pyrazolo-[3,4-c]quinolin-1-yl)-benzonitrile]: the melting point was 288.9 °C. Moreover, in data set [1], the IC50 is under 100 nM.

Regarding `COc1cc2ncc3c(c(-c4ccc(C#N)cc4)nn3C)c2cc1OC(C(N)=O)c1ccc(F)cc1` (stereo not drawn) [Compound 8, 2-[1-(4-Cyanophenyl)-7-methoxy-3-methyl-3H-pyrazolo[3,4-c]quinolin-8-yloxy]-2-(4-fluorophenyl)-acetamide], the melting point was 249.2 °C. This compound had an IC50 in data set [1] of under 100 nM.

As for `COc1cc2ncc3c(c(-c4ccc(C#N)cc4)nn3C)c2cc1OCCN(C)C` [Compound 40, 4-[8-(2-Dimethylamino-ethoxy)-7-methoxy-3-methyl-3H-pyrazolo[3,4-c]quinolin-1-yl]benzonitrile], the melting point is 212.2 °C. The compound further returned an IC50 in data set [1] of over 100 nM.

Consider `CCn1nc(-c2ccc(C#N)cc2F)c2c3cc(OC)c(OC)cc3ncc21` [Compound 57, 4-(3-Ethyl-7,8-dimethoxy-3H-pyrazolo[3,4-c]quinolin-1-yl)-3-fluorobenzonitrile], for which, in data set [1], the IC50 was 100 to 500 nM.

Compound `CCCCn1nc(-c2ccc(C#N)cc2)c2c3cc(OC)c(OC)cc3ncc21` [Compound 58, 4-(3-Butyl-7,8-dimethoxy-3H-pyrazolo[3,4-c]quinolin-1-yl)-benzonitrile] returned an IC50 in data set [1] of over 500 nM.

Turning to `CCCn1nc(-c2ccc(C#N)cc2)c2c3cc(OC)c(OC)cc3ncc21` [Compound 59, 4-(7,8-Dimethoxy-3-propyl-3H-pyrazolo[3,4-c]quinolin-1-yl)-benzonitrile], the IC50 in data set [1] was in the range of 100 to 500 nM.

Take `COc1cc2ncc3c(c(-c4ccc(C#N)cc4)nn3C(C)C)c2cc1OC` [Compound 60, 4-(3-Isopropyl-7,8-dimethoxy-3H-pyrazolo[3,4-c]quinolin-1-yl)benzonitrile]: the IC50 in data set [1] was in the range of 100 to 500 nM.

In data set [1], `COc1cc2ncc3c(c(-c4ccc(C#N)cc4)nn3CC(C)C)c2cc1OC` [Compound 61, 4-(3-lsobutyl-7,8-dimethoxy-3H-pyrazolo[3,4-c]quinolin-1-yl)benzonitrile] gave an IC50 of over 500 nM.

Consider `COc1cc2ncc3c(c(-c4ccc(C#N)cc4)nn3C3CC3)c2cc1OC` [Compound 62, 4-(3-Cyclopropyl-7,8-dimethoxy-3H-pyrazolo[3,4-c]-quinolin-1-yl)benzonitrile], for which the IC50 in data set [1] lay within 100 to 500 nM.

The compound `C=CCn1nc(-c2ccc(C#N)cc2)c2c3cc(OC)c(OC)cc3ncc21` [Compound 63, 4-(3-Allyl-7,8-dimethoxy-3H-pyrazolo[3,4-c]quinolin-1-yl)-benzonitrile] came in with an IC50 in data set [1] of 100 to 500 nM.

Regarding `COc1cc2ncc3c(c(-c4ccc(C#N)cc4F)nn3Cc3cccnc3)c2cc1OC` [Compound 64, 4-(7,8-Dimethoxy-3-pyridin-3-ylmethyl-3H-pyrazolo[3,4-c]-quinolin-1-yl)-3-fluoro-benzonitrile], the half-maximal inhibitory concentration (IC50) in data set [1] was over 500 nM.

For the compound `COc1cc2ncc3c(c(-c4ccc(C#N)cc4)nn3C#N)c2cc1OC` [Compound 65, 1-(4-Cyanophenyl)-7,8-dimethoxypyrazolo[3,4-c]-quinoline-3-carbonitrile], the IC50 in data set [1] lay in the range of 100 to 500 nM.

Compound `COc1cc2ncc3c(c(-c4ccc(C#N)cc4)nn3CC#N)c2cc1OC` [Compound 66, 4-(3-Cyanomethyl-7,8-dimethoxy-3H-pyrazolo[3,4-c]-quinolin-1-yl)benzonitrile] yielded an IC50 in data set [1] of under 100 nM.

`COc1cc2ncc3c(c(-c4ccc(C#N)cc4)nn3CC(=O)O)c2cc1OC` [Compound 67, [1-(4-Cyanophenyl)-7,8-dimethoxypyrazolo[3,4-c]-quinolin-3-yl]acetic acid] registered an IC50 in data set [1] of 100 to 500 nM.

In the case of `COc1cc2ncc3c(c(-c4ccc(C#N)cc4)nn3CC(N)=O)c2cc1OC` [Compound 68, 2-[1-(4-Cyanophenyl)-7,8-dimethoxypyrazolo[3,4-c]-quinolin-3-yl]acetamide], the IC50 in data set [1] was 100 to 500 nM.

Take `COc1cc2ncc3c(c(-c4ccc(C#N)cc4)nn3C(F)F)c2cc1OC` [Compound 69, 4-(3-Difluoromethyl-7,8-dimethoxy-3H-pyrazolo[3,4-c]-quinolin-1-yl)benzonitrile]: the IC50 in data set [1] is under 100 nM.

As to `COCc1cc(-c2nn(C)c3cnc4cc(OC)c(OC)cc4c23)ccc1C#N` [Compound 71, 4-(7,8-Dimethoxy-3-methyl-3H-pyrazolo[3,4-c]quinolin-1-yl)-2-methoxymethyl-benzonitrile], the IC50 in data set [1] is under 100 nM.

On to `COC(=O)c1cc(-c2[nH]nc3cnc4cc(OC)c(OC)cc4c23)ccc1C#N` [Compound 72, 2-Cyano-5-(7,8-dimethoxy-3H-pyrazolo[3,4-c]quinolin-1-yl)benzoic acid methyl ester], for which the IC50 in data set [1] is under 100 nM.

Compound `COc1cc2ncc3n[nH]c(-c4ccc(C#N)c(C(=O)O)c4)c3c2cc1OC` [Compound 73, 2-Cyano-5-(7,8-dimethoxy-3H-pyrazolo[3,4-c]quinolin-1-yl)benzoic acid] returned an IC50 in data set [1] of under 100 nM.

`COc1cc2ncc3n[nH]c(-c4ccc(C#N)c(-c5ccccc5)c4)c3c2cc1OC` [Compound 74, 5-(7,8-Dimethoxy-3H-pyrazolo[3,4-c]quinolin-1-yl)biphenyl-2-carbonitrile] came in with an IC50 in data set [1] of over 500 nM.

In turn, `CCN1CCN(c2ccc(-c3nn(C)c4cnc5cc(OC)c(OC)cc5c34)cc2)CC1` [Compound 75, 1-[4-(4-Ethylpiperazin-1-yl)-phenyl]-7,8-dimethoxy-3-methyl-3H-pyrazolo[3,4-c]-quinoline] displayed an IC50 in data set [1] of 100 to 500 nM.

`COc1cc2ncc3c(c(-c4ccccc4F)nn3C)c2cc1OC` [Compound 76, 1-(2-Fluorophenyl)-7,8-dimethoxy-3-methyl-3H-pyrazolo[3,4-c]quinoline]: in data set [1], the IC50 is under 100 nM.

The compound `COc1cc2ncc3c(c(-c4ccc(C#N)cc4F)nn3C)c2cc1-c1cccnc1` [Compound 77, 3-Fluoro-4-(7-methoxy-3-methyl-8-pyridin-3-yl-3H-pyrazolo[3,4-c]-quinolin-1-yl)-benzonitrile] showed an IC50 in data set [1] of under 100 nM.

In turn, `COc1cc2ncc3c(c(-c4ccc(C#N)cc4F)nn3C)c2cc1-c1cnc2ccccc2c1` [Compound 78, 3-Fluoro-4-(7-methoxy-3-methyl-8-quinolin-3-yl-3H-pyrazolo[3,4-c]-quinolin-1-yl)-benzonitrile] came in with an IC50 in data set [1] of under 100 nM.

With `COc1cc2ncc3c(c(-c4ccc(-c5ccn[nH]5)cc4)nn3C)c2cc1OCc1cncs1` [Compound 79, 7-Methoxy-3-methyl-1-[4-(2H-pyrazol-3-yl)phenyl]-8-(thiazol-5-ylmethoxy)-3H-pyrazolo[3,4-c]quinoline], the IC50 in data set [1] is under 100 nM.

In the case of `COc1cc2ncc3c(c(-c4ccc(-c5ccn[nH]5)cc4)nn3C)c2cc1-c1cn[nH]c1` [Compound 88, 7-Methoxy-3-methyl-8-(1H-pyrazol-4-yl)-1-[4-(2H-pyrazol-3-yl)phenyl]-3H-pyrazolo[3,4-c]quino-line], the concentration for half-maximal inhibition (IC50) in data set [1] was under 100 nM.

In data set [1], `COc1cc2ncc3c(c(-c4ccc(C#N)cc4F)nn3C)c2cc1-c1cc[nH]c1` [Compound 89, 3-Fluoro-4-[7-methoxy-3-methyl-8-(1H-pyrrol-3-yl)-3H-pyrazolo[3,4-c]-quinolin-1-yl]-benzonitrile] yielded an IC50 of under 100 nM.
